In ChEMBL document CHEMBL1201862, “PubChem BioAssay data set” (2004):
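Grown in 96-well plates, cells were treated for 48 hours with each compound at five concentrations. Insufficient inhibition: endpoint recorded as highest concentration tested. The concentration for 50% growth inhibition is given as GI50.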 Activity calls are given as the source filed them. Rule as the data show it: active = GI50 up to about 1.1 µM and inactive = higher.

Assays:
Experiment in all cases: NCI-60 cell line screen, 48 h
MOLT-4 = test system: MOLT-4
COLO 205 = test system: COLO 205
UO-31 = test system: UO-31
SF-268 = test system: SF-268
DMS-273 = test system: DMS-273
MDA-MB-231 = test system: MDA-MB-231
SR = test system: SR
HOP-92 = test system: HOP-92
MDA-N = test system: MDA-N
KM-20L2 = test system: KM-20L2
NCI/ADR-RES = test system: NCI/ADR-RES
NCI-H226 = test system: NCI-H226
LXFL 529 = test system: LXFL 529
IGROV-1 = test system: IGROV-1
Malme-3M = test system: Malme-3M
Hs-578T = test system: Hs-578T
M14 = test system: M14
SNB-78 = test system: SNB-78
TK-10 = test system: TK-10
SW-620 = test system: SW-620
NCI-H460 = test system: NCI-H460
UACC-257 = test system: UACC-257
CCRF-CEM = test system: CCRF-CEM
NCI-H23 = test system: NCI-H23
OVCAR-8 = test system: OVCAR-8
DMS-114 = test system: DMS-114
SK-OV-3 = test system: SK-OV-3
BT-549 = test system: BT-549
786-0 = test system: 786-0
HL-60 = test system: HL-60
SF-295 = test system: SF-295
DLD-1 = test system: DLD-1
A549 = test system: A549
SK-MEL-2 = test system: SK-MEL-2
MCF7 = test system: MCF7
SNB-19 = test system: SNB-19
HT-29 = test system: HT-29
K562 = test system: K562
M19-MEL = test system: M19-MEL
MDA-MB-435 = test system: MDA-MB-435
HCC 2998 = test system: HCC 2998
SK-MEL-28 = test system: SK-MEL-28
PC-3 = test system: PC-3
SNB-75 = test system: SNB-75
EKVX = test system: EKVX
UACC-62 = test system: UACC-62
HOP-62 = test system: HOP-62
XF498 = test system: XF498
T47D = test system: T47D
SK-MEL-5 = test system: SK-MEL-5
HOP-18 = test system: HOP-18
OVCAR-3 = test system: OVCAR-3
SF-539 = test system: SF-539
OVCAR-5 = test system: OVCAR-5
A498 = test system: A498
HCT-116 = test system: HCT-116
DU-145 = test system: DU-145
RPMI-8226 = test system: RPMI-8226
HCT-15 = test system: HCT-15
CAKI-1 = test system: CAKI-1
LOX IMVI = test system: LOX IMVI
U-251 = test system: U-251
SN12C = test system: SN12C
OVCAR-4 = test system: OVCAR-4
KM12 = test system: KM12
ACHN = test system: ACHN
RXF 393 = test system: RXF 393
NCI-H522 = test system: NCI-H522

COc1ccc(N2C(=O)/C(=C/c3ccc(N(CCC#N)CCC#N)cc3C)N=C2c2cc([N+](=O)[O-])ccc2Cl)cc1
GI50 (MOLT-4): 4.73 µM (inactive) | GI50 (COLO 205): 4.34 µM (inactive) | GI50 (UO-31): 5.19 µM (inactive) | GI50 (SF-268): 11 µM (inactive) | GI50 (DMS-273): 3.3 µM (inactive) | GI50 (MDA-MB-231): 12.6 µM (inactive) | GI50 (SR): 3.24 µM (inactive) | GI50 (HOP-92): > 31.7 µM (inactive) | GI50 (MDA-N): 1.56 µM (inactive) | GI50 (KM-20L2): 2.31 µM (inactive) | GI50 (NCI/ADR-RES): > 10 µM (inactive) | GI50 (NCI-H226): 17 µM (inactive) | GI50 (LXFL 529): 7.53 µM (inactive) | GI50 (IGROV-1): 19.7 µM (inactive) | GI50 (Malme-3M): 27 µM (inactive) | GI50 (Hs-578T): 1.54 µM (inactive) | GI50 (M14): 4.67 µM (inactive) | GI50 (SNB-78): 6.9 µM (inactive) | GI50 (TK-10): 21.6 µM (inactive) | GI50 (SW-620): 4.55 µM (inactive) | GI50 (NCI-H460): 4.5 µM (inactive) | GI50 (UACC-257): 46.3 µM (inactive) | GI50 (CCRF-CEM): 3.77 µM (inactive) | GI50 (NCI-H23): 7.59 µM (inactive) | GI50 (OVCAR-8): 5.33 µM (inactive) | GI50 (DMS-114): 3.32 µM (inactive) | GI50 (SK-OV-3): 4.54 µM (inactive) | GI50 (BT-549): 53.2 µM (inactive) | GI50 (786-0): 4.43 µM (inactive) | GI50 (HL-60): 3.62 µM (inactive) | GI50 (SF-295): 3.05 µM (inactive) | GI50 (DLD-1): 4.51 µM (inactive) | GI50 (A549): 4.89 µM (inactive) | GI50 (SK-MEL-2): 6.15 µM (inactive) | GI50 (MCF7): 4.81 µM (inactive) | GI50 (SNB-19): 8.13 µM (inactive) | GI50 (HT-29): 4.07 µM (inactive) | GI50 (K562): 2.62 µM (inactive) | GI50 (M19-MEL): 17.1 µM (inactive) | GI50 (MDA-MB-435): 1.96 µM (inactive) | GI50 (HCC 2998): 4.68 µM (inactive) | GI50 (SK-MEL-28): 11 µM (inactive) | GI50 (PC-3): 4.7 µM (inactive) | GI50 (SNB-75): 3.3 µM (inactive) | GI50 (EKVX): 14.5 µM (inactive) | GI50 (UACC-62): 5.27 µM (inactive) | GI50 (HOP-62): 5.46 µM (inactive) | GI50 (XF498): 2.34 µM (inactive) | GI50 (T47D): > 89.9 µM (inactive) | GI50 (SK-MEL-5): 5.43 µM (inactive) | GI50 (HOP-18): > 100 µM (inactive) | GI50 (OVCAR-3): 3.35 µM (inactive) | GI50 (SF-539): 3.37 µM (inactive) | GI50 (OVCAR-5): 25.4 µM (inactive) | GI50 (A498): 5.41 µM (inactive) | GI50 (HCT-116): 3.94 µM (inactive) | GI50 (DU-145): 6.34 µM (inactive) | GI50 (RPMI-8226): 4.18 µM (inactive) | GI50 (HCT-15): 3.84 µM | GI50 (CAKI-1): 7 µM (inactive) | GI50 (LOX IMVI): 6.43 µM (inactive) | GI50 (U-251): 4.42 µM (inactive) | GI50 (SN12C): 6.31 µM (inactive) | GI50 (OVCAR-4): > 46.5 µM (inactive) | GI50 (KM12): 6.52 µM (inactive) | GI50 (ACHN): 22.6 µM (inactive) | GI50 (RXF 393): 4.61 µM (inactive) | GI50 (NCI-H522): 2.74 µM (inactive)
